# Measurements taken from US4107424A, “1-N-[(S)-α-hydroxy-ω-aminoacyl] derivatives of 3',4'-dideoxykanamycin B and 3'-deoxykanamycin B antibiotics” (Zaidan Hojin Biseibutsu Kagaku Kenkyu Kai, priority 1972, dated 1978).
# Read-outs that look alike come from different tables or passages of the source.
# Legend:
# [1] = system: Escherichia coli K-12 R-5; test: Minimal inhibitory concentration, agar dilution streak method; format: cell-based; settings: K12R5, nutrient agar, 37° C, 18 hours
# Description: (§1) [α]D^22 + 38°, (c 0.85, water).
# (§2) *Agar Agar dilution streak method (nutrient agar, 37° C, 18 hours)
# (§3) *Agar dilution streak method (nutrient agar, 37° C, 18 hours).
# Escherichia coli NIHJ = test: as above; format: cell-based; settings: nutrient agar, 37° C, 18 hours
# Description: as §1, §2, §3
# [2] = system: Pseudomonas aeruginosa 99; test: as above; format: cell-based; settings: nutrient agar, 37° C, 18 hours, read-out: Minimal inhibitory concentration
# Description: as §1, §2, §3
# Salmonella typhosa T-63 = test: as above; format: cell-based; settings: Salmonella enterica, nutrient agar, 37° C, 18 hours
# Description: as §1, §2, §3
# Sarcina lutea PCI 1001 = test: as above; format: cell-based; settings: Micrococcus luteus, PCI1001, 18 h, read-out: Minimal inhibitory concentration
# Description: as §1, §2, §3
# [3] = system: Escherichia coli K-12 JR 66/W 677; test: as above; format: cell-based; settings: Escherichia coli, 18 h, read-out: Minimal inhibitory concentration
# Description: as §2, §3
# [4] = system: Escherichia coli K-12 LA 290 R 55; test: as above; format: cell-based; settings: 18 h, read-out: Minimal inhibitory concentration
# Description: as §2, §3
# [5] = system: Escherichia coli K-12 LA 290 R 56; test: as above; format: cell-based; settings: 18 h, read-out: Minimal inhibitory concentration
# Description: as §2, §3
# [6] = system: Escherichia coli K-12 LA 290 R 64; test: as above; format: cell-based; settings: nutrient agar, 37° C, 18 hours, read-out: Minimal inhibitory concentration
# Description: as §2, §3
# [7] = system: Escherichia coli K-12 ML 1410 R 81; test: as above; format: cell-based; settings: 18 h, read-out: Minimal inhibitory concentration
# Description: as §2, §3
# [8] = system: Escherichia coli K-12 ML 1410; test: as above; format: cell-based; settings: K12ML1410, nutrient agar, 37° C, 18 hours, read-out: Minimal inhibitory concentration
# Description: as §2, §3
# [9] = system: Escherichia coli K-12 ML 1629; test: as above; format: cell-based; settings: K12ML1629, nutrient agar, 37° C, 18 hours, read-out: Minimal inhibitory concentration
# Description: as §2, §3
# [10] = system: Escherichia coli K-12 ML 1630; test: as above; format: cell-based; settings: K12ML1630, nutrient agar, 37° C, 18 hours, read-out: Minimal inhibitory concentration
# Description: as §2, §3
# [11] = system: Escherichia coli K-12 W 677; test: as above; format: cell-based; settings: K12W677, nutrient agar, 37° C, 18 hours, read-out: Minimal inhibitory concentration
# Description: as §2, §3
# Escherichia coli K-12 = test: as above; format: cell-based; settings: K12, nutrient agar, 37° C, 18 hours, read-out: Minimal inhibitory concentration
# Description: as §2, §3
# [12] = system: Klebsiella pneumoniae type 22 #3038; test: as above; format: cell-based; settings: Klebsiella pneumoniae; nutrient agar, 37° C, 18 hours
# Description: as §2, §3
# [13] = system: Pseudomonas aeruginosa A 3; test: as above; format: cell-based; settings: A3, nutrient agar, 37° C, 18 hours, read-out: Minimal inhibitory concentration
# Description: as §2, §3
# [14] = system: Pseudomonas aeruginosa GN 315; test: as above; format: cell-based; settings: GN315, nutrient agar, 37° C, 18 hours, read-out: Minimal inhibitory concentration
# Description: as §2, §3
# [15] = system: Pseudomonas aeruginosa No.12; test: as above; format: cell-based; settings: nutrient agar, 37° C, 18 hours, read-out: Minimal inhibitory concentration
# Description: as §2, §3
# [16] = system: Pseudomonas aeruginosa TI-13; test: as above; format: cell-based; settings: TI13, nutrient agar, 37° C, 18 hours, read-out: Minimal inhibitory concentration
# Description: as §2, §3
# [17] = system: Staphylococcus aureus FDA 209P; test: as above; format: cell-based; settings: FDA209P, nutrient agar, 37° C, 18 hours, read-out: Minimal inhibitory concentration
# Description: as §2, §3
# [18] = system: Mycobacterium smegmatis ATCC 607; test: as above; format: cell-based; settings: Mycolicibacterium smegmatis, ATCC607; nutrient agar, 37° C, 18 hours; read-out: Minimum inhibitory concentrations
# [19] = system: Staphylococcus aureus Smith; test: Minimum inhibitory concentration, serial dilution method; format: cell-based; settings: read-out: Minimum inhibitory concentrations
# [20] = system: Staphylococcus aureus Terajima; test: as above; format: cell-based; settings: read-out: Minimum inhibitory concentrations
# Bacillus anthracis = test: microbe, parasite or virus in culture; format: cell-based; settings: 18 h, read-out: Minimum inhibitory concentrations
# [21] = system: Bacillus subtilis PCI 219; test: Minimum inhibitory concentration, serial dilution method; format: cell-based; settings: read-out: Minimum inhibitory concentrations
# [22] = system: Bacillus cereus ATCC 10702; test: as above; format: cell-based; settings: ATCC10702, nutrient agar, 37° C, 18 hours, read-out: Minimum inhibitory concentrations
# [23] = system: Corynebacterium bovis 1810; test: as above; format: cell-based; settings: read-out: Minimum inhibitory concentrations
# [24] = system: Shigella dysenteriae JS 11910; test: as above; format: cell-based; settings: JS11910, 18 h, read-out: Minimum inhibitory concentrations
# [25] = system: Shigella flexneri 4b JS 11811; test: as above; format: cell-based; settings: 4BJS11811, nutrient agar, 37° C, 18 hours, read-out: Minimum inhibitory concentrations
# Shigella sonnei JS 11746 = test: as above; format: cell-based; settings: JS11746, nutrient agar, 37° C, 18 hours, read-out: Minimum inhibitory concentrations
# [26] = system: Salmonella enteritidis 1891; test: as above; format: cell-based; settings: Salmonella enterica, nutrient agar, 37° C, 18 hours, read-out: Minimum inhibitory concentrations
# Proetus vulgaris OX 19 = test: as above; format: cell-based; settings: nutrient agar, 37° C, 18 hours; read-out: Minimum inhibitory concentrations
# [27] = system: Klebsiella pneumoniae PCI 1602; test: as above; format: cell-based; settings: read-out: Minimum inhibitory concentrations
# [28] = system: gram-positive and gram-negative bacteria; test: Antibacterial activity (in words); format: cell-based; settings: various gram-positive and gram-negative bacteria, including resistant strains
# Description: as §1
# in vivo = settings: mouse, iv
# mice = test: Acute intravenous toxicity (LD50) in mice; settings: in words
Structure (SMILES),MIC [1] [mg/L],MIC (Escherichia coli NIHJ) [mg/L],MIC [2] [mg/L],MIC (Salmonella typhosa T-63) [mg/L],MIC (Sarcina lutea PCI 1001) [mg/L],MIC [3] [mg/L],MIC [4] [mg/L],MIC [5] [mg/L],MIC [6] [mg/L],MIC [7] [mg/L],MIC [8] [mg/L],MIC [9] [mg/L],MIC [10] [mg/L],MIC [11] [mg/L],MIC (Escherichia coli K-12) [mg/L],MIC [12] [mg/L],MIC [13] [mg/L],MIC [14] [mg/L],MIC [15] [mg/L],MIC [16] [mg/L],also measured
"NCC[C@H](O)C(=O)N[C@@H]1C[C@H](N)[C@@H](O[C@H]2O[C@H](CN)[C@@H](O)[C@H](O)[C@H]2N)[C@H](O)[C@H]1O[C@H]1O[C@H](CO)[C@@H](O)[C@H](N)[C@H]1O [AHB-kanamycin B, 1-N-[(S)-4-amino-2-hydroxybutyryl]-kanamycin B]",0.78,0.78,25,0.39,3.13,3.12,1.56,0.39,0.39,1.56,3.13,1.56,1.56,0.39,0.78,6.25,6.25,50,6.25,6.25,"MIC [17]: 0.78 mg/L; MIC [18]: 0.78 mg/L; MIC ([19]; nutrient agar, 37° C, 18 hours): < 0.2 mg/L; MIC ([20]; nutrient agar, 37° C, 18 hours): 0.2 mg/L; MIC (Bacillus anthracis): < 0.2 mg/L; MIC ([21]; PCI219, nutrient agar, 37° C, 18 hours): < 0.2 mg/L; MIC [22]: 1.56 mg/L; MIC ([23]; Corynebacterium bovis, 1810, nutrient agar, 37° C, 18 hours): 0.39 mg/L; MIC [24]: 3.12 mg/L; MIC [25]: 3.12 mg/L; MIC (Shigella sonnei JS 11746): 1.56 mg/L; MIC [26]: 3.12 mg/L; MIC (Proetus vulgaris OX 19): 1.56 mg/L; MIC ([27]; PCI1602, nutrient agar, 37° C, 18 hours): 0.39 mg/L; antibacterial activity [28]: high antibacterial activity not only against various gram-positive and gram-negative bacteria which are sensitive to kanamycins, but also against the drug-resistant strains of Escherichia coli and Pseudomonas aeruginosa; LD50 (in vivo): > 100 mg/kg; toxicity (mice): low toxicity to animals and men"
"NC[C@H]1O[C@H](O[C@H]2[C@H](O)[C@@H](O[C@H]3O[C@H](CO)[C@@H](O)[C@H](N)[C@H]3O)[C@H](N)C[C@@H]2N)[C@H](N)[C@@H](O)[C@@H]1O [Kanamycin B, kanamycin B]",1.56,0.78,> 100,0.2,1.56,> 100,12.5,3.13,3.13,> 100,0.78,> 100,> 100,0.39,0.78,> 100,50,> 100,12.5,100,"MIC [17]: 0.39 mg/L; MIC [18]: 0.78 mg/L; MIC ([19]; 18 h): < 0.2 mg/L; MIC ([20]; 18 h): < 0.2 mg/L; MIC (Bacillus anthracis): < 0.2 mg/L; MIC ([21]; PCI219, 18 h): < 0.2 mg/L; MIC [22]: 0.78 mg/L; MIC ([23]; Corynebacterium bovis, 1810, 18 h): 1.56 mg/L; MIC [24]: 3.13 mg/L; MIC [25]: 3.13 mg/L; MIC (Shigella sonnei JS 11746): 1.56 mg/L; MIC [26]: 1.56 mg/L; MIC (Proetus vulgaris OX 19): 0.78 mg/L; MIC ([27]; PCI1602, 18 h): 0.78 mg/L"
